In patent US7183306B2, “Pyrazole derivatives” (Astellas Pharma Inc., priority 2002, dated 2007) one finds response vs control in vivo, IC50 and melting point data, which are given here for eight compounds.

In data set [1] the test system is arthritic rats (adjuvant arthritis). As to the kind of experiment: Analgesic activity: effect on adjuvant arthritis in rats (Randall-Selitto pain threshold). The format is in vivo, Lewis rats. The settings on record: Rattus norvegicus, single dose, pain threshold of left hind paw 2 hrs after administration, threshold pressure of treated vs non-treated rats, ratio of 1.5 considered effective, read-out: The coefficient of analgesic.

In a further data set the target is T1, COX-I (Homo sapiens, UniProt P23219).
T1 construct: Fresh blood was collected by syringe without anticoagulants from volunteers with consent; from tissue; host or cells: fresh human whole blood from volunteers, allowed to clot
In words: Whole blood assay for COX-I (TXB2 production). The format is cell-based. Here is the method: [B] Inhibiting Activity Against COX-I and COX-II (Whole Blood Assay) (i) Test Metho: Whole Blood Assay for COX-I
Fresh blood was collected by syringe without anticoagulants from volunteers with consent. The subjects had no apparent inflammatory conditions and had not taken any medication for at least 7 days prior to blood collection.
500 μl Aliquots of human whole blood were immediately incubated with 2 μl of either dimethyl sulfoxide vehicle or a test compound at final concentrations for 1 hr at 37° C. to allow the blood to clot. Appropriate treatments (no incubation) were used as blanks. At the end of the incubation, 5 μl of 250 mM Indomethacin was added to stop the reaction. The blood was centrifuged at 6000×g for 5 min at 4° C. to obtain serum. A 100 μl aliquot of serum was mixed with 400 μl methanol for protein precipitation. The supernatant was obtained by centrifuging at 6000×g for 5 min at 4° C. and was assayed for TXB2 using an enzyme immunoassay kit according to the manufacturer's procedure. For a test compound, the results were expressed as percent inhibition of thromboxane B2(TXB2) production relative to control incubations containing dimethyl sulfoxide vehicle.
The data were analyzed by that a test compound at the indicated concentrations was changed log value and was applied simple linear regression. IC50 value was calculated by least squares method.

The target in another data set is T2, COX-II (Homo sapiens, UniProt P35354).
T2 construct: incubation of the blood with 10 μl of 5 mg/ml lipopolysaccharide for 24 hrs at 37° C. for induction of COX-II; from tissue; host or cells: heparinized fresh human whole blood from volunteers, LPS-stimulated
T2 sequence (P35354 18-604): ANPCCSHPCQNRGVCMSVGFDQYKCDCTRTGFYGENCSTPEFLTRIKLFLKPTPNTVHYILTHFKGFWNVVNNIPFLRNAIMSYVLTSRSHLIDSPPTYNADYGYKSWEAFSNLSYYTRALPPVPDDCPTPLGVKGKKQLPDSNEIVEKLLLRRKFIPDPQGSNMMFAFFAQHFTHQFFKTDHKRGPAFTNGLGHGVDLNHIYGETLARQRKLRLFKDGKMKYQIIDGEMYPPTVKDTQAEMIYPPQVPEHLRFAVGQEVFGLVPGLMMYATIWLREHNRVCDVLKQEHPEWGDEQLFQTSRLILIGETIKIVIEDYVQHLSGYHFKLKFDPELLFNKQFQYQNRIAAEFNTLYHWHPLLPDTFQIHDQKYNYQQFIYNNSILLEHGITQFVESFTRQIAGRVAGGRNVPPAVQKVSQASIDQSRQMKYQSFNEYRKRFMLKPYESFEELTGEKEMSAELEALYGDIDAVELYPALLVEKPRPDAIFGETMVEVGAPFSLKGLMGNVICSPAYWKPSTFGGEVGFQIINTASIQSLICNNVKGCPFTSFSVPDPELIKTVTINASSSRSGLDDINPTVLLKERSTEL
In words: Whole blood assay for COX-II (LPS-induced PGE2 production). Type of data set: cell-based. The settings on record: LPS 24 hrs at 37° C., inhibition of PGE2 production. On the procedure: Whole Blood Assay for COX-II
Fresh blood was collected in heparinized tubes by syringe from volunteers with consent. The subjects had no apparent inflammatory conditions and had not taken any medication for at least 7 days prior to blood collection.
500 μl aliquots of human whole blood were incubated with either 2 μl dimethyl sulfoxide vehicle or 2 μl of a test compound at final concentrations for 15 min at 37° C. This was followed by incubation of the blood with 10 μl of 5 mg/ml lipopolysaccharide for 24 hrs at 37° C. for induction of COX-II. Appropriate PBS treatments (no LPS) were used as blanks. At the end of the incubation, the blood was centrifuged at 6000×g for 5 min at 4° C. to obtain plasma. A 100 μl aliquot of plasma was mixed with 400 μl methanol for protein precipitation. The supernatant was obtained by centrifuging at 6000×g for 5 min at 4° C. and was assayed for prostaglandin E2 (PGE2) using a radioimmunoassay kit after conversion of PGE2 to its methyl oximate derivative according to the manufacturer's procedure.
For a test compound, the results were expressed as percent inhibition of PGE2 production relative to control incubations containing dimethyl sulfoxide vehicle. The data were analyzed by that a test compound at the indicated concentrations was changed log value and was applied simple linear regression. IC50 value was calculated by least squares method.

T1 sequence (P23219 24-599): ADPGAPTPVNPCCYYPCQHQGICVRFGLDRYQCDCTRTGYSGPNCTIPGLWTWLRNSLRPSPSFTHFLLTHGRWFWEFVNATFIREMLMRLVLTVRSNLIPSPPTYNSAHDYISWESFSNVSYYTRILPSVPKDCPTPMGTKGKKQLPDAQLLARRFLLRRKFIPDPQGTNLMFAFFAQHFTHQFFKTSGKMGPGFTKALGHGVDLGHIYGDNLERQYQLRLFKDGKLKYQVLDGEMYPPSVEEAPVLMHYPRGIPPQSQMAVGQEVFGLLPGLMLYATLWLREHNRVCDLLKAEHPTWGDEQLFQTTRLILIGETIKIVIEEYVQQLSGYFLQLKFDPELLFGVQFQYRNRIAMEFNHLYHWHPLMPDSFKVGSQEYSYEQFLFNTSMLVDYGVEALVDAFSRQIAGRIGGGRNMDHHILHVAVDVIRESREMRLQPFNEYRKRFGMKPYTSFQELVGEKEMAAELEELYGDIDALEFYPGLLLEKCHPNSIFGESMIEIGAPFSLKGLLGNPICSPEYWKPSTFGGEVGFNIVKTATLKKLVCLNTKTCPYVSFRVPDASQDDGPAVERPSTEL

`COc1ccc(-n2nc(C(F)F)cc2-c2ccc(OCCNC(N)=O)cc2)cn1` [Example 250] returned a melting point of 141.5 to 142.1 °C. Besides, in data set [1], the response vs control in vivo at 3.2 mg/kg was at least 150%. Moreover, the half-inhibitory concentration (IC50) at COX-I was under 10 nM. In addition, at COX-II, the IC50 is over 100 nM.
With `COc1ccc(-n2nc(C(F)(F)F)cc2-c2ccc(OCCNC(N)=O)cc2)cc1` [Example 240], the response vs control in vivo at 3.2 mg/kg in data set [1] is at least 150%. Further, the IC50 against COX-I is under 10 nM; at COX-II it was over 100 nM.
As to `COc1ccc(-n2nc(C3CC3)cc2-c2ccc(OCCNC(N)=O)cc2)cc1` [Example 248], the melting point is 150.8 to 151 °C. In addition, the response vs control in vivo at 3.2 mg/kg in data set [1] was at least 150%. For the same compound, the IC50 against COX-I was under 10 nM. The IC50 on COX-II is over 100 nM.
Regarding `COc1ccc(-n2nc(C(F)F)cc2-c2ccc(CNS(C)(=O)=O)cc2)cc1` [Example 61, N-{4-[3-(Difluoromethyl)-1-(4-methoxyphenyl)-1H-pyrazol-5-yl]benzyl}methanesulfonamide], in data set [1], the response vs control in vivo at 3.2 mg/kg was over 150%. Besides, the IC50 against COX-I is under 10 nM; on COX-II it was over 100 nM.
For `COc1ccc(-n2nc(C(F)(F)F)cc2-c2ccc(OCCNC(C)=O)cc2)cc1` [Example 254], the melting point fell in the range of 109.8 to 110.2 °C. In data set [1], the response vs control in vivo at 3.2 mg/kg was at least 150%. Besides, the concentration for half-maximal inhibition (IC50) on COX-I was under 10 nM. Further, the IC50 at COX-II is over 100 nM.
As for `COc1ccc(-n2nc(Cl)cc2-c2ccc(OCCO)cc2)cc1` [Example 23, 2-{4-[3-Chloro-1-(4-methoxyphenyl)-1H-pyrazol-5-yl]-phenoxy}ethanol], the melting point was 114.7 to 115.5 °C. Also, the response vs control in vivo at 3.2 mg/kg in data set [1] was over 150%. Also, the 50% inhibitory concentration (IC50) at COX-I was under 10 nM. The compound also returned an IC50 against COX-II of over 100 nM.
For `COc1ccc(-n2nc(Cl)cc2-c2ccc(OCCNC(N)=O)cc2)cc1` [Example 28, N-(2-{4-[3-Chloro-1-(4-methoxyphenyl)-1H-pyrazol-5-yl]-phenoxy}ethyl)urea] the same measures were 144.8 to 145.4 °C, over 150%, under 10 nM and over 100 nM.
For the compound `COc1ccc(C2N=C(C(F)F)C=C2c2ccc(OCCNC(N)=O)cc2)cc1` (centres unmarked) [Example 181], the response vs control in vivo at 3.2 mg/kg in data set [1] was at least 150%. In addition, the IC50 against COX-I was under 10 nM; at COX-II it was over 100 nM.

One may read the IC50 as the concentration that gives 50% inhibition. The low end stands for inhibition by little substance, the high end for a need for much substance. The melting point is the temperature, or range, at which the solid turns liquid.
